The text below walks through data of patent publication US9328093B2, “Selective inhibitors of ubiquitin specific protease 7, the pharmaceutical compositions thereof and their therapeutic applications” (HYBRIGENICS SA, priority 2010, dated 2016).

In this assay the test system is HCT116 colon cancer cells. The assay can be described thus: HCT116 cell viability and proliferation assay (MTS). In kind it is cell-based. To be noted: Homo sapiens, HCT-116, 72 h, HCT116, 72 hours, read-out: Cell viability (MTS): HCT116 GI50 Day3. The procedure, abridged: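 HCT116 cells (10^3/well) treated in triplicate 24 h after seeding with 50 nM–100 μM compound, 0.5% final DMSO, for 72 h at 37 °C. Viability by MTS (2 h), absorbance 492 nm; GI50 from sigmoidal variable-slope fit, mean of three independent experiments.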
Consider `CN1CCCC1CCNC(=O)c1ccc2c(Cl)c3c(nc2c1)CCCC3` (stereo not drawn) [Example 17, 9-chloro-N-(2-(1-methylpyrrolidin-2-yl)ethyl)-5,6,7,8-tetrahydroacridino-3-carboxamide], for which the 50% growth inhibitory concentration (GI50) – broadly, the concentration at which growth is held to half of that of the control – is 6.9 µM. The result for `O=C(NCc1cccc(CN2CCCC2)c1)c1ccc2c(Cl)c3c(nc2c1)CCCC3` [Example 18, 9-chloro-N-(3-(pyrrolidin-1-ylmethyl)benzyl)-5,6,7,8-tetrahydroacridine-3-carboxamide] reads 4.3 µM; that for `O=C(Nc1cccc(CN2CCCC2)c1)c1ccc2c(Cl)c3c(nc2c1)CCCC3` [Example 19, 9-chloro-N-(3-(pyrrolidin-1-ylmethyl)phenyl)-5.6,7,8-tetrahydroacridine-3-carboxamide], 4.1 µM; that for `CC1CCCCN1CCCNC(=O)c1ccc2c(Cl)c3c(nc2c1)CCCC3` (stereo not drawn) [Example 20, 9-chloro-N-(3-(2-methylpiperidin-1-yl)propyl)-516,7,8-tetrahydroacridine-3-carboxamide], 8.4 µM. The result for `O=C(NCc1ccc(CN2CCCC2)cc1)c1ccc2c(Cl)c3c(nc2c1)CCCC3` [Example 21, 9-chloro-N-(4-(pyrrolidin-1-ylmethyl)benzyl)-5,6,7,8-tetrahydroacridine-3-carboxamide] reads 3.5 µM; that for `COc1ccc(CN2CCC(CNC(=O)c3ccc4c(Cl)c5c(nc4c3)CCCC5)CC2)cc1` [Example 22, 9-chloro-N-((1-(4-methoxybenzyl)piperidin-4-yl)methyl)-5,6,7,8-tetrahydroacridine-3-carboxamide], 3.3 µM. As to `CN(C)c1ccc(CN2CCC(CNC(=O)c3ccc4c(Cl)c5c(nc4c3)CCCC5)CC2)cc1` [Example 23], the GI50 was determined as 1.8 µM. The result for `O=C(NCC1CCNCC1)c1ccc2c(Cl)c3c(nc2c1)CCCC3` [Example 24, 9-chloro-N-((piperidin-4-yl)methyl)-5,6,7,8-tetrahydroacridine-3-carboxamide] reads 8.3 µM; that for `O=C(NCC(CN1CCCC1)C(O)c1ccccc1)c1ccc2c(Cl)c3c(nc2c1)CCCC3` (stereo not drawn) [Example 25, 9-chloro-N-(3-hydroxy-3-phenyl-2-pyrrolidin-1-ylmethylpropyl)-5,6,7,8-tetrahydroacridine-3-carboxamide], 5.6 µM.
